Assay results taken from publication PMC6468270, “Recognition of ASF1 by Using Hydrocarbon‐Constrained Peptides” (Chembiochem, 2019).
Several values for one entry are separate records, joined by “and”; a condition that tells them apart may be missing. Equal values may be shown once. Read-outs that look alike come from different tables or passages of the source. Starred links: 1 amine or outer side, 2 acyl side, 3 side chain; linkers in the order of their positions; H or OH if unused. Positions of bridges follow the written chain, without caps; N, C: chain ends. Non-standard residues stand in square brackets, D forms with d. Residues, ends and D or L forms follow the SMILES beside them. Nle(6-ylidene) = O=C([C@H](CCCC=[*:3])N[*:1])[*:2]

B1: H3_(118–135) (peptide, UniProt P68431 119-136, looked up)
peptide: TIMPKDIQLARRIRGERA
notes: histone H3, C-terminal helix peptide, residues 118-135; also called histone H3(118–135); unconstrained H3_(118–135); source: synthetic peptide (solid-phase peptide synthesis)

Legend:
ASF1A(1–156) [1] = biological target: T1, ASF1A(1–156) (Homo sapiens, UniProt Q9Y294); experiment: NMR chemical-shift-perturbation study with 15N labelled ASF1A(1–156); format: binding; conditions: uniformly 15N labelled ASF1A(1–156), mapped on PDB 2IIJ
T1 construct: Recombinant human ASF1 (ASF1A(1-156)) was purified as already described; (His)6-GST-TEV site (N, cleaved yes); made in house; host or cells: E. coli (pETM30 plasmid)
Protocol: In order to confirm the binding mode of the constrained peptides with ASF1, chemical‐shift‐perturbation studies were carried out for all three peptides (Figure S2) by using uniformly ^15N labelled ASF1A(1–156). The chemical‐shift variation was mapped onto the protein structure of ASF1A–H3 (PDB ID: 2IIJ). All three peptides induced the highest values of chemical‐shift variation and a “slow‐exchange” regime for the ASF1 residues defining the already well characterised H3 binding site (V45–E51, V90–I97, R108–Y111, V146–T147),37, 45 thus confirming the preservation of the specific binding mode for the constrained peptides.

trypsin = experiment: Proteolysis assay with trypsin; format: in vitro ADME
Protocol: (§1) The proteolytic stability of the peptides was also investigated by using trypsin and proteinase K. The unconstrained H3_118–135 was cleaved within 14 minutes by both proteases (Figure 4, Table 2 and the Supporting Information), whereas the constrained peptides had increased stability depending on the position of the constraint. […]
(§2) The experiment wells contained aqueous buffer (50 mM Tris, pH 8, 100 mM NaCl, 170 µL) to which peptide solution (10 µL, 1 mM in H2O) and enyzme solution (20 µL 0.5 µg/ml trypsine or 20 µL 1 µg/ml proteinase K) was added. Final concentrations in the experiment wells were 50 µM peptide, 0.05 µg/ml trypsine or 0.1 µg/ml proteinase K. A control experiment was started at the same time without the enzymes. 10 µL aliqouts of the reaction were quenched at different time-points using 90 µL 2% TFA solution. Samples were measured using LC-ESI-MS on a Bruker Maxis impact mass spectrometer equipped with a Thermo Ultimate 3000 UPLC. All samples were run on an Acquity BEH C4 column using a gradient of 1-90% B (A: H2O + 0.1 % formic acid, B: ACN + 0.1 % formic acid) over 4 minutes.
(§3) Intact peptide content was determined relative to the t=0 time-point based on HPLC peak areas. Curves were fitted using an exponential decay function in Origin Pro 9.

proteinase K [2] = experiment: Proteolysis assay with proteinase K; format: in vitro ADME; conditions: Tritirachium album (Parengyodontium album); fitted half-life; 50 mM Tris, pH 8, 100 mM NaCl, room temperature, 50 M peptide, 0.1 g/ml proteinase K (µ lost in print); LC-ESI-MS, intact peptide relative to t=0, exponential decay fit; read-out: Proteinase K t 1/2
Protocol: as §1, §2, §3

[3] = Circular dichroism (CD), % helicity; format: physicochemical; conditions: 100 μM peptide in 40 mM sodium phosphate, pH 7.5, 293 K, scans in duplicate
Protocol: The helical character of all three peptides was investigated by using circular dichroism (CD) in both 40 mM phosphate buffer and trifluoroethanol (TFE). […] (Figure 2).
Circular Dichroism was performed on an Applied Photophysics ChiraScan Apparatus and Software.
For each scan, the following parameters were used: 180-260 nm range; point time 1 s; 1 nm per point; step = 1; bandwidth 4.3 nm; path length 1 mm; temperature 20 °C. Scans were done in duplicate.
Samples were dissolved in 4 0 mM sodium phosphate b uffer pH 7.50 at concentration of 100 μM.
Where θ = circular dichroism at a given wavelength, c = molar concentration, l = path length in cm, R = number of residues in the peptide sequence.
Figure ESI 1. Conformational analyses of histone H3 variant peptides by circular dichroism (CD) analyses (peptide concentration =100 μM, 40 mM sodium phosphate (or 40 mM sodium phosphate/ […]
(§4) Expression and Purification of ASF-1
(§5) Recombinant human ASF1 (ASF1A(1-156)) was purified as already described from expression in E. coli of a (His)6–GST –Tev site–Asf1 fusion protein using the pETM30 plasmid. Briefly, soluble (His)6-tagged GST fusion protein was purified on reduced glutathione (GSH) agarose beads (Sigma).
(§6) After cleavage with recombinant (His)6-TEV protease at room temperature overnight, the (His)6-GST tag and the protease were trapped in a Ni-NTA agarose column (Qiagen). The flow-through fraction containing ASF1 proteins was further purified by anion exchange chromatography using a Resource Q 6mL column (GE Healthcare). ASF1 was then concentrated using an Amicon device (Millipore) and the buffer was replaced with a 50mM Tris-HCl (pH7.5). Unlabled ASF1 used for ITC experiments was purified from pellets of bacteria grown in LB medium, and uniformly labelled ASF1 from bacteria gown in M9 minimal media supplemented with (15NH4)Cl (Eurisotop,0.5 g.l−1) as the sole nitrogen source.
(§7) (1 picture or pasted object on this page, not shown here)

ASF1A(1–156) [4] = biological target: T1, ASF1A(1–156); experiment: Isothermal titration calorimetry (ITC) of peptide binding to ASF1; conditions: 20°C, 50mM Tris-HCl pH 7.5, protein 10µM, peptide 200µM, at least in duplicate
Protocol: Binding of the peptides to ASF1 was then assessed by isothermal titration calorimetry (ITC; Figure 3, Table 1). […] Strikingly, the binding potency was similar in all three cases, ΔG=−7.3 to −8.0 kcal M ^−1, despite H3_118–135(St123–127)GCA adopting a more helical conformation and therefore presumably being more pre‐organised towards ASF1 recognition. Analyses of the thermodynamic determinants of binding reveal enthalpy–entropy compensation. […] In contrast, for the more helical peptide, H3_118–135(St123–127)GCA, the entropy of binding (TΔS=3.1 kcal M ^−1) was favourable, consistent with the anticipated effect of pre‐organisation; however, the enthalpy of binding (ΔH=−4.2 kcal M ^−1) was less favourable than for the less helical variants. […] Such an effect might arise because the less helical peptides H3_118–135 and H3_118–135(St120–124) form enthalpically favourable backbone hydrogen bonds upon a change in conformation to the helix, whereas the more pre‐organised helix H3_118–135(St123–127)GCA neither gains new hydrogen bonds nor undergoes an entropically costly change in conformation on binding ASF1. Alternatively, differential changes in the solvation of the peptides upon binding could account for such a difference in thermodynamic signature. Either way, the results underscore a limitation in correlating conformational stability against binding potency for the unconstrained (H3_118–135) and constrained (H3_118–135(St123–127)GCA) peptides; although the helical conformation is preferred for H3_118–135(St123–127)GCA, this can be considered as arising from an increase in energy (or destabilisation) of nonhelical conformations for this sequence as opposed to preorganisation of the wild‐type sequence. […]
as §4, §5, §6, §7
Isothermal Titration Calorimetry
All IsoThermal Calorimetry (ITC) experiments were performed in a VP-ITC titration calorimeter (Microcal/Malvern) at 20°C, in a 50mM Tris-HCl pH 7.5 buffer. Protein and peptides concentrations were set to values 10µM and 200µM, respectively. Protein and peptide samples were prepared in the same buffer and degassed (ThermoVac, Malvern). After equilibrating the cell at […], the rotating syringe (310rpm) injected at intervals of 280s, 6µL aliquots of peptide solution into the Asf1 previously introduced in the sample cell until saturation was observed. Raw ITC data were processed with the Origin 7.0 Software (OriginLab, Malvern) using the One-Set of Sites fitting model. All ITC experiments were performed at least in duplicate. […]
as §3

proteinase K [5] = biological target: proteinase K (Parengyodontium album, UniProt P06873); experiment: Proteolysis assay with proteinase K; format: in vitro ADME; conditions: 50 mM Tris, pH 8, 100 mM NaCl, room temperature, LC-ESI-MS
Protocol: as §1, §2, §3

ASF1A(1–156) [6] = biological target: T2, ASF1A(1–156) (UniProt Q9Y294 1-156, uniformly 15N labelled (in the chemical-shift-perturbation study only)); experiment: ITC; H3 peptides with ASF1A(1–156); exothermic, fitted to a 1:1 binding isotherm; conditions not shown; conditions: both partners purified
T2 construct: ASF1A (anti-silencing function 1A), histone chaperone, conserved N-terminal domain, residues 1-156; The same construct limits as in PDB 2IIJ; also called anti-silencing function 1

[7] = trypsin, fitted half-life, 50 mM Tris, pH 8, 100 mM NaCl, room temperature, 50 M peptide, 0.05 g/ml trypsine (µ lost in print), LC-ESI-MS, intact peptide relative to t=0, exponential decay fit, read-out: Trypsin t 1/2

T1 sequence (Q9Y294 1-156): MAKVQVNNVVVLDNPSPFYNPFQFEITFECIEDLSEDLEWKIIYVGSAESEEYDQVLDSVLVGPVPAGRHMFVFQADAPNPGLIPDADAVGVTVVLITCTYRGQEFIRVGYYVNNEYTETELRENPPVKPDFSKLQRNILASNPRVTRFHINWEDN
T2 sequence (Q9Y294 1-156): as above
Chain of proteinase K (Parengyodontium album, UniProt P06873) (P06873 106-384, species assumed): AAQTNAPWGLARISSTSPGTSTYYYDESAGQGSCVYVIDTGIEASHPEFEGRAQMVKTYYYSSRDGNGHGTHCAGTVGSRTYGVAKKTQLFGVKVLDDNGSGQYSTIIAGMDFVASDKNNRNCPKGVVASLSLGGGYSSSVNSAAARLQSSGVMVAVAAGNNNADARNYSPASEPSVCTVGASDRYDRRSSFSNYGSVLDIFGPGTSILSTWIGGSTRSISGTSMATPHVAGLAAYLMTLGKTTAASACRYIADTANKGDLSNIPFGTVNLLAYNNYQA

| Kd (ASF1A(1–156) [6]) | dH (ASF1A(1–156) [6]) | stoichiometry N (ASF1A(1–156) [6]) | Molecule | chemical-shift variation at the B domain binding site (S59–F72) of ASF1 (nonspecific binding) (ASF1A(1–156) [1]) | half-life at 50 µM (trypsin; [7]) | half-life at 50 µM (proteinase K [2]) | % helicity [3] | ΔG (ASF1A(1–156) [4]) | TΔS (ASF1A(1–156) [4]) | ΔH (ASF1A(1–156) [4]) | half-life at 50 µM (trypsin; isolated enzyme trypsin, pH 8) | time within which peptide was cleaved by proteinase K (proteinase K [5]) |
| --- | --- | --- | --- | --- | --- | --- | --- | --- | --- | --- | --- | --- |
| – | – | – | CC[C@H](C)[C@H](NC(=O)[C@H](CCCNC(=N)N)NC(=O)[C@H](CCCNC(=N)N)NC(=O)[C@H](C)NC(=O)[C@H](CC(C)C)NC(=O)[C@H](CCC(N)=O)NC(=O)[C@@H]1CCCC=CCCC[C@H](NC(=O)[C@H](C)NC(=O)CNC(C)=O)C(=O)NCC(=O)N[C@@H](CCCCN)C(=O)N[C@@H](CC(=O)O)C(=O)N1)C(=O)N[C@@H](CCCNC(=N)N)C(=O)NCC(=O)N[C@@H](CCC(=O)O)C(=O)N[C@@H](CCCNC(=N)N)C(=O)N[C@@H](C)C(N)=O [H3_118–135(St120–124)] (Ac-GA[Nle(6-ylidene)]GKD[Nle(6-ylidene)]QLARRIRGERA-NH2; staple 3-7) | exhibited chemical‐shift variations | 14.9 ± 2.5 min | 65.8 ± 15.7 min | 20% | −8.3±0.07 kcal M ^−1 | – | – | – | – |
| – | – | – | CC[C@H](C)[C@H](NC(=O)[C@H](CCCNC(=N)N)NC(=O)[C@H](CCCNC(=N)N)NC(=O)[C@@H]1CCCC=CCCC[C@H](NC(=O)[C@H](CCCCN)NC(=O)CNC(=O)[C@H](CCSC)NC(=O)[C@H](C)NC(=O)CNC(C)=O)C(=O)N[C@@H]([C@@H](C)CC)C(=O)N[C@@H](CCC(N)=O)C(=O)N[C@@H](CC(C)C)C(=O)N1)C(=O)N[C@@H](CCCNC(=N)N)C(=O)NCC(=O)N[C@@H](CCC(=O)O)C(=O)N[C@@H](CCCNC(=N)N)C(=O)N[C@@H](C)C(=O)NCC(=O)N[C@@H](CS)C(=O)N[C@@H](C)C(N)=O [H3_118–135(St123–127)GCA] (Ac-GAMGK[Nle(6-ylidene)]IQL[Nle(6-ylidene)]RRIRGERAGCA-NH2; staple 6-10) | no chemical‐shift variation | 40.5 ± 16.9 min | 23.1 ± 2.6 min | 29% | −7.3±0.05 kcal M ^−1 | 3.1 kcal M ^−1 and 3.1±0.2 kcal M ^−1 | −4.2 kcal M ^−1 and −4.2±0.08 kcal M ^−1 | – | – |
| – | – | – | Ac-GAMGKDIQLARRIRGERA-NH2 [H3_118–135] | exhibited chemical‐shift variations | – | 12.2 ± 0.8 min | 15% | −8.0±0.14 kcal M ^−1 | −6.4 to −6.7 kcal M ^−1 and −6.4±0.51 kcal M ^−1 | −14.4 to −15.0 kcal M ^−1 and −14.4±0.37 kcal M ^−1 | 13.3 ± 1.5 min | ≤ 14 min |
| 1.34 ± 0.33 µM | -14.4 ± 0.37 kcal/M | 0.94 ± 0.04 | B1 | – | – | – | – | – | – | – | – | – |
